Read-outs that look alike come from different tables or passages of the source.
How the values were obtained:
[1] = Cytotoxicity assay in Vero cells (MTT); assay type: cell-based, African green monkey (Cercopithecus aethiops); conditions: African green monkey, Vero cells (ATCC CCL-81), pH 7.3, MTT, 1 × 10^4 cells per well, 500 to 7.8 μM
Protocol: (§1) The Vero cell (ATCC, CCL-81) was cultured in Dulbecco’s modified Eagle medium (DMEM), pH 7.3, supplemented with 10% FBS (v/v) and a penicillin/streptomycin solution (0.1 mg mL^–1/100 U mL^–1). The cells were incubated at 37 °C in a humidified atmosphere with 5% CO2. The MTT reduction assay (3-(4,5-dimethylthiazol-2-yl)-2,5-diphenyltetrazolium bromide) was adapted from Mosmann[43] to evaluate cytotoxicity. For this assay, 1 × 10^4 cells per well were seeded in 96-well plates and incubated overnight until reaching approximately 80% confluence. Wells were treated with different compound concentrations (500 to 7.8 μM) in triplicate. The culture medium was replaced with 0.5 mg mL^–1 MTT solution, and the plate was incubated for 3 h. The resulting formazan crystals were solubilized in DMSO, and absorbance was measured using a Spectramax spectrophotometer at a wavelength of 540 nm to assess cell viability.

Vero cells [2] = experiment: Cytotoxicity assay in Vero cells (MTT); assay type: cell-based, African green monkey (Cercopithecus aethiops)
Protocol: as §1

RAW 264.7 macrophages = experiment: Cytotoxicity assay in macrophage RAW 264.7 (resazurin); assay type: cell-based; conditions: RAW 264.7 cells, highest concentration (200 μM), 48 h
Protocol: (§2) RAW 264.7 cells were cultured in Roswell Park Memorial Institute (RPMI) medium, pH 7.2, supplemented with 10% (v/v) heat-inactivated fetal bovine serum (FBS) (Gibco), 100 μg mL^–1 penicillin (Sigma), 2 g L^–1 sodium bicarbonate, 2 mM L-glutamine, and 25 mM HEPES, and maintained at 37 °C in a humidified incubator with 5% CO2 atmosphere.[27] The cells were then seeded into sterile 96-well plates at a density of 5 × 10^4 cells/well, followed by the addition of the compounds at a concentration of 10 μM for screening, and in a range of 200 μM to 1.56 μM for the determination of the 50% cytotoxic concentration (CC50). Controls included 1% DMSO and amphotericin B at 3.125 μg mL^–1, with 48 h of treatment. Cell viability was assessed using 1 mM resazurin, with subsequent readings performed on a Spectramax spectrophotometer at wavelengths of 570 and 600 nm.

[3] = as above; assay type: cell-based; conditions: mouse, RAW 264.7 macrophages, pH 7.2; RAW 264.7 cells, 200 to 1.56 μM, 48 h treatment, resazurin
Protocol: as §2

[4] = test system: L. braziliensis MHOM/BR/75/M2904; experiment: In vitro infection of RAW 264.7 macrophages by L. braziliensis-GFP (leishmanicidal screening); assay type: cell-based; conditions: Leishmania braziliensis; for viability at 10 µM: RAW264.7, 48 h, read-out: parasite viability; for IC50: RAW264.7, suggested from the 10 μM screening, L. braziliensis in RAW 264.7 macrophages, 48 h
Protocol: L. braziliensis MHOM/BR/75/M2904 was cultured in Grace’s insect medium (pH 6.5) supplemented with 10% (v/v) heat-inactivated fetal bovine serum (FBS) (Gibco), 100 μg mL^–1 penicillin (Sigma), and 2 mM L-glutamine, maintained at 25 °C in a B.O.D. incubator. Using the stationary phase culture on the seventh day, 2.0 × 10^6Leishmania/well were transferred to a 96-well plate containing 1.0 × 10^5 preadhered macrophages/well, following an adapted infection protocol.[44] After applying the compounds at a concentration of 10 μM, 1% DMSO and amphotericin B (3.125 μg mL^–1) were used as controls. Treatments were conducted for 48 h, followed by macrophage lysis using 0.1% SDS solution, which was subsequently neutralized with complete Grace’s medium. To recover promastigote forms, the plate was incubated for 5 days. Fluorescence was measured using a Spectramax fluorometer, with excitation at 490 nm and emission at 520 nm.

Vero cells [5] = test system: Vero cells; design: method as in earlier work; conditions: 15 μg mL^–1 (equivalent to 16.23 μM), neutral red cytotoxicity assay; cited from earlier work
L. amazonensis = test system: L. amazonensis; design: method as in PMID 32272211; conditions: L. amazonensis amastigote stage, 48 h treatment, cited from earlier work
Vero cells [6] = test system: Vero cells; design: method as in PMID 29877104; conditions: 5 × 10^4 cells per well, cited from earlier work
human monocyte cell line = test system: human monocyte cell line; design: method as in PMID 32272211; conditions: 48 h treatment, cited from earlier work
[7] = test system: murine peritoneal macrophages; design: method as in PMID 36375398; conditions: cited from earlier work
[8] = high concentrations (500 and 250 μM)
[9] = all tested concentrations (500 to 7.8 μM)
[10] = converted from μg mL^–1, read-out: CC50 (equivalent)

Row | Structure (SMILES) | CC50 [1] | survival rate (Vero cells [2]; [8]) | cell viability at the highest concentration compared to the control (RAW 264.7 macrophages) | CC50 at 48 h [3] | survival rate (Vero cells [2]; [9]) | also measured
1 | Cc1ccc(C(C)C)cc1OCC(=O)Nc1ccccc1Cl [Compound 1, N-(2-Chlorophenyl)-2-(5-isopropyl-2-methylphenoxy)acetamide] | 200 µM | below 50% | no significant differences | > 200 µM | – | –
2 | Cc1ccc(C(C)C)cc1OCC(=O)Nc1cccc(Cl)c1 [Compound 2, N-(3-Chlorophenyl)-2-(5-isopropyl-2-methylphenoxy)acetamide] | – | – | – | > 200 µM | above 50% | –
3 | Cc1ccc(C(C)C)cc1OCC(=O)Nc1ccc(Cl)cc1 [Compound 3, N-(4-Chlorophenyl)-2-(5-isopropyl-2-methylphenoxy)acetamide] | 449 µM | below 50% | – | > 200 µM | – | –
4 | Cc1ccc(C(C)C)cc1OCC(=O)Nc1ccccc1Br [Compound 4, N-(2-Bromophenyl)-2-(5-isopropyl-2-methylphenoxy)acetamide] | 372 µM | below 50% | – | > 200 µM | – | –
5 | Cc1ccc(C(C)C)cc1OCC(=O)Nc1cccc(Br)c1 [Compound 5, N-(3-Bromophenyl)-2-(5-isopropyl-2-methylphenoxy)acetamide] | – | – | no significant differences | > 200 µM | above 50% | viability at 10 µM [4]: ~50%; IC50 [4]: ~10 µM
6 | Cc1ccc(C(C)C)cc1OCC(=O)Nc1ccc(Br)cc1 [Compound 6, N-(4-Bromophenyl)-2-(5-isopropyl-2-methylphenoxy)acetamide] | 182 µM | below 50% | no significant differences | > 200 µM | – | –
7 | Cc1ccc(C(C)C)cc1OCC(=O)Nc1ccccc1F [Compound 7, N-(2-Fluorophenyl)-2-(5-isopropyl-2-methylphenoxy)acetamide] | – | – | no significant differences | > 200 µM | above 50% | viability at 10 µM [4]: ~50%; IC50 [4]: ~10 µM
8 | Cc1ccc(C(C)C)cc1OCC(=O)Nc1cccc(F)c1 [Compound 8, N-(3-Fluorophenyl)-2-(5-isopropyl-2-methylphenoxy)acetamide] | 337 µM | below 50% | – | > 200 µM | – | –
9 | Cc1ccc(C(C)C)cc1OCC(=O)Nc1ccc(F)cc1 [Compound 9, N-(4-Fluorophenyl)-2-(5-isopropyl-2-methylphenoxy)acetamide] | – | – | – | > 200 µM | above 50% | –
10 | Cc1ccc(C(C)C)cc1OCC(=O)Nc1ccccc1 [Compound 10, 2-(5-Isopropyl-2-methylphenoxy)-N-phenylacetamide] | – | – | – | > 200 µM | above 50% | –
11 | C[C@@H]1[C@H](O)[C@@H](C)/C=C/C=C/C=C/C=C/C=C/C=C/C=C/[C@H](O[C@@H]2O[C@H](C)[C@@H](O)[C@H](N)[C@@H]2O)C[C@@H]2O[C@](O)(C[C@@H](O)C[C@@H](O)[C@H](O)CC[C@@H](O)C[C@@H](O)CC(=O)O[C@H]1C)C[C@H](O)[C@H]2C(=O)O [amphotericin B] | – | – | – | – | – | toxicity (Vero cells [5]): over 70%
12 | Cc1ccc(C(C)C)cc1O [carvacrol] | – | – | – | – | – | IC50 (L. amazonensis; converted from μg mL^–1, read-out: IC50 (equivalent)): ~182 µM; IC50 (L. amazonensis): approximately 27.40 μg mL^–1; CC50 (Vero cells [6]; [10]): 572 µM; CC50 (Vero cells [6]): 86 ± 1.41 μg mL^–1; CC50 (human monocyte cell line; [10]): 427 µM; CC50 (human monocyte cell line): 64.10 μg mL^–1; CC50 ([7]; 24 h treatment, converted from μg mL^–1, read-out: CC50 (equivalent)): 505 µM; CC50 ([7]; 24 h treatment): 75.91 μg mL^–1; CC50 ([7]; 72 h treatment, converted from μg mL^–1, read-out: CC50 (equivalent)): 268 µM; CC50 ([7]; 72 h treatment): 40.23 μg mL^–1
